Measurements reported in the supplement of paper PMC4862054.

Columns and labels:
Assay in all cases: normalised viability (% of control), CellTiter-Blue; higher = more viable cells (about 100 = DMSO control)
Conditions in all cases: incubation time: 72 h
[1] = test system: MFM-223
Method: (§1)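 DSRT, CellTiter-Blue viability, 72 h incubation. Signal is normalised to DMSO and benzethonium chloride controls. Value is the normalised response at dose 3.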

[2] = test system: SK-BR-3
Method: as §1

[3] = test system: MDA-MB-231
Method: as §1

[4] = test system: MDA-MB-436
Method: as §1

[5] = test system: HDQ-P1
Method: as §1

[6] = test system: Hs578T
Method: as §1

[7] = test system: MDA-MB-453
Method: as §1

[8] = test system: MDA-MB-468
Method: as §1

[9] = test system: BT-474
Method: as §1

[10] = test system: CAL-85-1
How it was run: (§2)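 Each entry is normalised viability at a single listed concentration within a series. It comes from breast cancer cell lines incubated 72 h with compound in 384-well plates, then measured with CellTiter-Blue fluorescence at 560/590 nm. Every plate was normalised between vehicle (100) and a positive kill control (0).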

[11] = test system: MFM-223; remark: listed apart in the source
How it was run: as §2

[12] = test system: SK-BR-3; remark: listed apart in the source
How it was run: as §2

[13] = test system: MDA-MB-231; remark: listed apart in the source
How it was run: as §2

[14] = test system: HCC1937
How it was run: as §2

[15] = test system: MDA-MB-436; remark: listed apart in the source
How it was run: as §2

[16] = test system: CAL-51
How it was run: as §2

[17] = test system: BT-549
How it was run: as §2

[18] = test system: HDQ-P1; remark: listed apart in the source
How it was run: as §2

[19] = test system: Hs578T; remark: listed apart in the source
How it was run: as §2

[20] = test system: HCC1143
How it was run: as §2

[21] = test system: CAL-120
How it was run: as §2

[22] = test system: MDA-MB-453; remark: listed apart in the source
How it was run: as §2

[23] = test system: CAL-148
How it was run: as §2

[24] = test system: HCC1599
How it was run: as §2

[25] = test system: MDA-MB-468; remark: listed apart in the source
How it was run: as §2

[26] = test system: DU-4475
How it was run: as §2

[27] = test system: BT-474; remark: listed apart in the source
How it was run: as §2

CC(C)C[C@H](NC(=O)[C@H](Cc1ccccc1)NC(=O)c1cnccn1)B(O)O [Bortezomib]
Conditions	normalised viability [%]
[1], 10 nM	38.1
[2], 10 nM	22.4
[3], 10 nM	16.2
[4], 10 nM	98.9
[5], 1 nM	83.8
[6], 10 nM	87.6
[7], 1 nM	105
[8], 10 nM	12
[9], 10 nM	50.8
[10], 0.3 nM	104
[10], 3 nM	92.1
[10], 10 nM	36.5
[11], 1 nM	104
[11], 100 nM	16.9
[11], 1000 nM	15.3
[12], 1 nM	90.2
[12], 100 nM	17.5
[12], 1000 nM	15.6
[13], 1 nM	92.4
[13], 100 nM	2.05
[13], 1000 nM	0.27
[14], 1 nM	83.4
[14], 100 nM	8.79
[14], 1000 nM	3.46
[15], 1 nM	101
[15], 100 nM	12.2
[15], 1000 nM	9.29
[16], 0.3 nM	101
[16], 3 nM	97.9
[16], 10 nM	97.7
[17], 1 nM	99.8
[17], 100 nM	6.67
[17], 1000 nM	3.15
[18], 0.3 nM	79.4
[18], 3 nM	87.9
[18], 10 nM	10.2
[19], 1 nM	91.1
[19], 100 nM	2.89
[19], 1000 nM	0.76
[20], 1 nM	81
[20], 100 nM	19.4
[20], 1000 nM	17.4
[21], 1 nM	95.8
[21], 100 nM	4.31
[21], 1000 nM	3.21
[22], 0.3 nM	106
[22], 3 nM	112
[22], 10 nM	20.9
[23], 0.3 nM	99.6
[23], 3 nM	89
[23], 10 nM	94.4
[24], 1 nM	130
[24], 100 nM	64.5
[24], 1000 nM	45.2
[25], 1 nM	88.3
[25], 100 nM	3.55
[25], 1000 nM	2.21
[26], 0.3 nM	113
[26], 3 nM	93.4
[26], 10 nM	98.8
[27], 1 nM	101
[27], 100 nM	36.6
[27], 1000 nM	22.4

O=C(c1ccc(OCCN2CCCCC2)cc1)c1c(-c2ccc(O)cc2)sc2cc(O)ccc12 [Raloxifene]
Conditions	normalised viability [%]
[1], 100 nM	84.3
[2], 100 nM	115
[3], 100 nM	89.3
[4], 100 nM	107
[5], 10 nM	90.2
[6], 100 nM	104
[7], 10 nM	107
[8], 100 nM	105
[9], 100 nM	107
[10], 3 nM	100
[10], 30 nM	94.5
[10], 100 nM	98
[11], 10 nM	99.8
[11], 1000 nM	86.2
[11], 10000 nM	80.6
[12], 10 nM	94
[12], 1000 nM	94.7
[12], 10000 nM	103
[13], 10 nM	85.3
[13], 1000 nM	89.3
[13], 10000 nM	102
[14], 10 nM	89.3
[14], 1000 nM	93.3
[14], 10000 nM	96.2
[15], 10 nM	104
[15], 1000 nM	86.3
[15], 10000 nM	76.2
[16], 3 nM	102
[16], 30 nM	99.7
[16], 100 nM	93.7
[17], 10 nM	77.5
[17], 1000 nM	101
[17], 10000 nM	56.8
[18], 3 nM	90.2
[18], 30 nM	97.5
[18], 100 nM	107
[19], 10 nM	112
[19], 1000 nM	102
[19], 10000 nM	92.8
[20], 10 nM	114
[20], 1000 nM	98.7
[20], 10000 nM	96.8
[21], 10 nM	99.6
[21], 1000 nM	98.2
[21], 10000 nM	91.8
[22], 3 nM	106
[22], 30 nM	97.5
[22], 100 nM	92.4
[23], 3 nM	95.2
[23], 30 nM	98.6
[23], 100 nM	93.8
[24], 10 nM	95.7
[24], 1000 nM	103
[24], 10000 nM	102
[25], 10 nM	98.6
[25], 1000 nM	106
[25], 10000 nM	78.2
[26], 3 nM	105
[26], 30 nM	108
[26], 100 nM	104
[27], 10 nM	100
[27], 1000 nM	103
[27], 10000 nM	113

CC(=O)O[C@H]1C(=O)[C@@]2(C)[C@H]([C@H](OC(=O)c3ccccc3)[C@]3(O)C[C@H](OC(=O)[C@H](O)[C@@H](NC(=O)c4ccccc4)c4ccccc4)C(C)=C1C3(C)C)[C@]1(OC(C)=O)CO[C@@H]1C[C@@H]2O [Paclitaxel]
Conditions	normalised viability [%]
[1], 10 nM	55.8
[2], 10 nM	25.9
[3], 10 nM	35.7
[4], 10 nM	52.2
[5], 1 nM	60.8
[6], 10 nM	26
[7], 1 nM	107
[8], 10 nM	52.1
[9], 10 nM	54.3
[10], 0.3 nM	99.5
[10], 3 nM	76.9
[10], 10 nM	62.2
[11], 1 nM	98.2
[11], 100 nM	45.1
[11], 1000 nM	51.7
[12], 1 nM	84.8
[12], 100 nM	13.9
[12], 1000 nM	12.9
[13], 1 nM	79.2
[13], 100 nM	19.9
[13], 1000 nM	22.1
[14], 1 nM	91.1
[14], 100 nM	15.3
[14], 1000 nM	19.7
[15], 1 nM	100
[15], 100 nM	50.5
[15], 1000 nM	42.2
[16], 0.3 nM	95.1
[16], 3 nM	82.9
[16], 10 nM	57.9
[17], 1 nM	83.7
[17], 100 nM	21.1
[17], 1000 nM	20.4
[18], 0.3 nM	88.2
[18], 3 nM	55.6
[18], 10 nM	46.1
[19], 1 nM	110
[19], 100 nM	16.4
[19], 1000 nM	11.1
[20], 1 nM	104
[20], 100 nM	34.5
[20], 1000 nM	32.5
[21], 1 nM	89.7
[21], 100 nM	23.6
[21], 1000 nM	22.7
[22], 0.3 nM	87.7
[22], 3 nM	63.2
[22], 10 nM	43.5
[23], 0.3 nM	106
[23], 3 nM	72.6
[23], 10 nM	51.2
[24], 1 nM	113
[24], 100 nM	86.7
[24], 1000 nM	69.6
[25], 1 nM	93.5
[25], 100 nM	47.2
[25], 1000 nM	49.4
[26], 0.3 nM	108
[26], 3 nM	95.5
[26], 10 nM	64.8
[27], 1 nM	106
[27], 100 nM	25.2
[27], 1000 nM	27.7
